From patent publication US20040253259A1, “Biological compositions and methods for treatment of kidney cancer” (priority 2003, published 2004)

Tests used:
Assay type in all cases: in vivo
[1] = system: complex cancer cells of kidney; experiment: Wistar rat model of human kidney cancer, tumor growth (Example 8); conditions: tumor-bearing rats, 30 consecutive days of treatment, sacrificed on 31st day from tumor inoculation
Source text: (§1) The following example illustrates the benefit of a biological composition of the invention in a Wistar rat model of human kidney cancer. The growth of the tumor in the rats was studied.
(§2) Complex cancer cells of kidney closely resembles the human kidney cancer pathology. See e.g., Modern Clinical Experimental Protocols, People's Republic of China Health Publishing House, 1997.
(§3) The biological composition comprising 10^8 cells per ml of activated and conditioned yeast cells of the strain Saccharomyces carlsbergensis Hansen strain AS2.189 was prepared by the methods described in Section 5.1 and subsections therein.
The animals used to generate the kidney cancer cells for the experiments were Wistar rats (obtainable from the Chinese Academy of Military Medical Sciences, Beijing, China) having an average body weight of about 180 to 200 gram. The complex cancer cells of kidney (obtainable from the Shanghai Medical University, Shanghai, China) were generated from a Wistar rat with kidney cancer that was induced by subcutaneous injection of bismaleimidohexane (BHM). […]
The rats received the biological compositions, untreated yeast cells, VCR or saline on the same day as the tumor cells were transplanted. […] The weight of the rats and the weight of the tumor were determined by standard techniques.

[2] = system: complex cancer cells of kidney; experiment: Wistar rat model of human kidney cancer, survival over 6 months (Example 9); conditions: for Number of live animals remaining in the groups after 30 days of treatment: 30 per group
Protocol: as §1, §3
The animals were prepared in a similar manner as described in Section 8.1.
The rats injected with tumor cells were kept for 5 days and then were divided into 4 experimental groups of ten rats per group and one control group. The four experimental groups were triplicated (i.e., using a total of 120 rats in the experimental groups). In group 2AY, the rats received 0.8 ml of the biological composition once per day. In group 2NY, the rats received 0.8 ml of the untreated yeast cells once per day. In group 2VCR, the rats were injected intravenously with 3 mg of […] (VCR) per kg body weight per day. In group 2CK1, the rats received 0.8 ml of physiological saline once per day.
(§4) The rats received the biological compositions, untreated yeast cells, VCR or saline on the same day as the tumor cells were transplanted. The rats in group 2CK2 also started receiving saline on the same day as the other four groups. The biological compositions, untreated yeast cells and saline were administered orally by a feeding tube and the VCR by intravenous injection for 30 consecutive days. The rats were observed over 6 months from the day of tumor inoculation and survival was recorded. The weight of the rats and the weight of the tumor were determined by standard techniques.

[3] = system: complex cancer cells of kidney; experiment: Syrian hamster model of human kidney cancer, survival time over 6 months (Example 7); conditions: for Number of live animals remaining in the groups after 30 days of treatment: 30 per group
Protocol: The following example illustrates the benefit of a biological composition of the invention in a Syrian hamster model of human kidney cancer. The survival time of hamsters after tumor injection and treatment was studied.
as §3
The animals were prepared in a similar manner as described in Section 6.1.
The hamsters injected with tumor cells were immediately divided into 4 experimental groups of ten hamsters per group and one control group. The four experimental groups were triplicated (i.e., using a total of 120 hamsters in the experimental groups). In group 2AY, the hamsters received 0.5 ml of the biological composition once per day. In group 2NY, the hamsters received 0.5 ml of the untreated yeast cells once per day. In group 2FUDR, the hamsters were injected subcutaneously with 0.6 mg of fluoruridine (FUDR) per kg body weight per day. In group 2CK1, the hamsters received 0.5 ml of physiological saline once per day.
as §4, with “hamsters” for “rats”, “FUDR” for “VCR”, “subcutaneous” for “intravenous”

[4] = system: complex cancer cells of kidney; experiment: Syrian hamster model of human kidney cancer, tumor growth (Example 6); conditions: tumor-bearing hamsters, 30 consecutive days of treatment, sacrificed on 31st day from tumor inoculation
Source text: The following example illustrates the benefit of a biological composition of the invention in a Syrian hamster model of human kidney cancer. The growth of the tumor in the hamsters was studied. Detailed description of the use of Syrian hamster to study kidney cancer can be found in, e.g., Liehr et al., 1991, Carcinogenesis 12:385-9, which is incorporated herein by reference in its entirety.
as §2, §3
The animals used to generate the kidney cancer cells for the experiments were Syrian hamsters (obtainable from the Institute of Laboratory Animal Sciences, Chinese Academy of Medical Sciences, Beijing, China), an equal number of male and female, 5 to 6 months old, having an average body weight of 150 to 180 gram. […]
The hamsters received the biological compositions, untreated yeast cells, FUDR or saline on the same day as the tumor cells were transplanted. […] The weight of the hamsters and the weight of the tumor were determined by standard techniques.

[5] = surviving rats, observed over 6 months
[6] = surviving hamsters, observed over 6 months

CC[C@]1(O)C[C@@H]2CN(CCc3c([nH]c4ccccc34)[C@@](C(=O)OC)(c3cc4c(cc3OC)N(C)[C@H]3[C@@](O)(C(=O)OC)[C@H](OC(C)=O)[C@]5(CC)C=CCN6CC[C@]43[C@@H]65)C2)C1 [VCR, vinblastine]
mean weight of rats and standard deviation [1]: 189.6 ± 2.5 g | mean weight of tumor nodules and standard deviation [1]: 3.7 ± 1.9 g | Number of live animals remaining in the groups after 30 days of treatment ([2]; rats, 0 month after cessation of treatment): 30 | Number of live animals remaining in the groups after 30 days of treatment ([2]; rats, 1 month after cessation of treatment): 30 | Number of live animals remaining in the groups after 30 days of treatment ([2]; rats, 2 months after cessation of treatment): 30 | Number of live animals remaining in the groups after 30 days of treatment ([2]; rats, 3 months after cessation of treatment): 22 | Number of live animals remaining in the groups after 30 days of treatment ([2]; rats, 4 months after cessation of treatment): 13 | Number of live animals remaining in the groups after 30 days of treatment ([2]; rats, 5 months after cessation of treatment): 0 | Number of live animals remaining in the groups after 30 days of treatment ([2]; rats, 6 months after cessation of treatment): 0 | survival outcome during the experiment ([2]; rats, observed over 6 months): all died | mean weight of rats and standard deviation [2, 5]: all animals dead | mean weight of tumor nodules and standard deviation [2, 5]: all animals dead

O=c1[nH]c(=O)n([C@H]2C[C@H](O)[C@@H](CO)O2)cc1F [FUDR, fluoruridine]
Number of live animals remaining in the groups after 30 days of treatment ([3]; hamsters, 0 month after cessation of treatment): 30 | Number of live animals remaining in the groups after 30 days of treatment ([3]; hamsters, 1 month after cessation of treatment): 27 | Number of live animals remaining in the groups after 30 days of treatment ([3]; hamsters, 2 months after cessation of treatment): 11 | Number of live animals remaining in the groups after 30 days of treatment ([3]; hamsters, 3 months after cessation of treatment): 5 | Number of live animals remaining in the groups after 30 days of treatment ([3]; hamsters, 4 months after cessation of treatment): 0 | Number of live animals remaining in the groups after 30 days of treatment ([3]; hamsters, 5 months after cessation of treatment): 0 | Number of live animals remaining in the groups after 30 days of treatment ([3]; hamsters, 6 months after cessation of treatment): 0 | survival outcome during the experiment ([3]; hamsters, observed over 6 months): all died | mean weight of hamsters and standard deviation [3, 6]: all animals dead | mean weight of tumor nodules and standard deviation [3, 6]: all animals dead | mean weight of hamsters and standard deviation [4]: 116.7 ± 4.9 g | mean weight of tumor nodules and standard deviation [4]: 2.7 ± 1.2 mg
